pIC50: −log10 of the molar value. Structures can show the parent of a compound that is named as a salt. Where two headings read alike, the source gives them in different places. One block for each molecule: values may come before it.
Tested on: amyloid β production in transfected H4 (human neuroglioma) cells stably expressing APP constructs
Test: In vitro cell-based assay of inhibitors of amyloid β production (ELISA)
Settings: amyloid β in medium by ELISA, read-out: ACTIVITY (IC50, inhibition of amyloid β production)
Outline: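 Sandwich ELISA read-out: Aβ in conditioned medium captured via C-terminal epitope mAb, detected with N-terminus-specific rabbit polyclonal, quantified from a standard curve. Compounds 10-100 μM, ~16 h exposure. Active = ≥50% inhibition vs control without significant cytotoxicity; dose-response follows.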

[1] = transfected H4 cells stably expressing APP constructs, approximately 16 hours incubation
[2] = transfected H4 cells stably expressing APP, approximately 16 hours incubation
[3] = transfected H4 cells stably expressing APP, approximately 16 hours incubation, Table B

Molecule: COC(=O)C[S+]([O-])CC[C@@H](C)N(c1cc(Cl)ccc1Cl)S(=O)(=O)c1ccc(Cl)cc1 (stereo partly drawn) [Example 1193, methyl(6R)-6-[(2,5-dichlorophenyl)-[(4-chlorophenyl)sulfonyl]-amino]-3-thioheptanoic acid, 3-oxide]
pIC50 [1]: 6.30 to 7.00

Molecule: C[C@H](COC(=O)NCCCn1ccnc1)N(c1cc(F)ccc1F)S(=O)(=O)c1ccc(Cl)cc1 [Example 517, 4-Chloro-N-(2,5-difluorophenyl)-N-[2-[[N′-[3-(1 h-imidazol-1-yl)propylamino]carbonyl]oxy]-(r)-1-methylethyl]benzenesulfonamide]
pIC50 [3]: 6.30 to 7.00

Molecule: CC1CN(CCCCC[C@@H](C)N(c2cc(Cl)ccc2F)S(=O)(=O)c2ccc(Cl)cc2)CCS1(=O)=O (some centres unmarked) [Example 1274]
pIC50 [1]: ≥ 7.60

Molecule: C[C@H](COC(=O)NCCCn1ncnn1)N(c1cc(Cl)ccc1F)S(=O)(=O)c1ccc(Cl)cc1 [Example 1295]
pIC50 (Homo sapiens, 16 h, transfected H4 cells expressing APP, approximately 16 hours incubation): ≥ 7.60

Molecule: CC([C@@H]1CCCN1CCS(C)(=O)=O)N(c1cc(Cl)ccc1Cl)S(=O)(=O)c1ccc(Cl)cc1 (some centres unmarked) [Example 1253]
pIC50 [1]: 6.30 to 7.00

Molecule: CC1CC(C)CN(CCCOc2ccccc2CN(c2ccccc2)S(=O)(=O)c2ccc(Cl)cc2)C1 (centres unmarked) [Example 303, 4-Chloro-N-{2-[3-(3,5-dimethyl-1-piperidinyl)propoxy]benzyl}-N-phenylbenzenesulfonamide Hydrochloride]
pIC50 [3]: 7.00 to 7.30

Further lines, results first:

pIC50 [2]: < 6.30
Molecule: N-{4-[2-(1-{[(4-chlorophenyl)sulfonyl]-2,5-difluoroanilino}ethyl)phenoxy]butyl}-3-cyclopentyl-N-ethylpropanamide [Example 943]

pIC50 (Homo sapiens, 16 h, transfected H4 cells stably expressing APP, approximately 16 hours incubation): < 6.30
Molecule: O=S(=O)(c1ccc(Cl)cc1)N(Cc1ccccc1OCCCN1CCSCC1)c1ccccc1 [Example 937, 4-chloro-N-phenyl-N-{2-[3-(4-thiomorpholinyl)propoxy]benzyl}benzenesulfonamide hydrochloride]

pIC50 (Homo sapiens, 16 h, transfected H4 cells stably expressing APP constructs, approximately 16 hours incubation): 6.30 to 7.00
Molecule: C[C@H](CCCNC(=O)C(C)(C)C)N(c1cc(Cl)ccc1Cl)S(=O)(=O)c1ccc(Cl)cc1 (stereo in doubt) [Example 1137, 4-chloro-N-(2,5-dichlorophenyl)-N-[4-[[(1,1-dimethylethyl)carbonyl]amino]-1-methylbutyl]benzenesulfonamide]

pIC50 [2]: < 6.30
Molecule: O=C(/C=C/c1ccccc1CN(c1ccccc1)S(=O)(=O)c1ccc(Cl)cc1)N1CCCC1 [Example 923]

pIC50 (transfected H4 cells stably expressing APP, approx. 16 h incubation): 6.30 to 7.00
Molecule: N-{3-[2-(1-{[(4-chlorophenyl)sulfonyl]-2,5-difluoroanilino}ethyl)phenoxy]propyl}-2,2-diphenylacetamide [Example 784]

— patent US6967196B1, “Sulfonamide compounds and uses thereof” (Bristol-Myers Squibb Company, priority 1999, dated 2005)
